Experimental findings from patent publication US7772177B2, “BIR domain binding compounds” (Aegera Therapeutics, Inc., priority 2005, dated 2010) are described below.

As usually defined, the IC50 is the concentration needed to halve the response being measured. The low end stands for inhibition by little substance, the high end for a need for much substance.

Assay [1] addresses T1, caspase-3 inhibited by linker BIR2-BIR3-RING of XIAP (Homo sapiens, UniProt P98170).
T1 construct: made in house; host or cells: E. coli DH5-alpha (GST-XIAP); E. coli AD494 (His-caspase-3)
Nature of the assay: Caspase-3 linker-BIR2-BIR3-RING derepression assay. The assay is classed as biochemical. The procedure:
In order to determine the relative activity of the selected compound against BIR2, an in vitro assay was used where caspase-3 was inhibited by linker-BIR2 or linker BIR2-BIR3-RING of XIAP. Briefly, 1.5 ul of the enzyme, 0.25 uM to 2 uM of GST-Xiap fusion protein (GST-linker BIR2, GST-linker BIR2BIR3RING) were co-incubated with serial dilutions of compound (80 uM-0.04 uM). Caspase 3 activity was measured by overlaying 25 ul of a 0.4 mM DEVD-AMC solution. Final reaction volume was 100 ul. All dilutions were performed in caspase buffer (50 mM Hepes pH 7.4, 100 mM NaCl, 10% sucrose, 1 mM EDTA, 10 mM DTT, 0.1% CHAPS (Stennicke, H. R., and Salvesen, G. S. (1997). Biochemical characteristics of caspase-3, -6, -7, and -8. J. Biol. Chem. 272, 25719-25723)).
The fluorescent AMC released from the caspase-3 hydrolysis of the substrate was measured in a TECAN spectrophotometer at 360 nm excitation and 444 nm emission, on a kinetic cycle of 30 minutes with readings taken every 2 minutes. Caspase activity was calculated as Vo of AMC fluorescence/sec. Caspase de-repression by our compounds were compared to caspase-3 alone and caspase 3 repressed by the presence of XIAP fusion protein.
(§1) Results: Compounds were also tested in the apoptosome assay and the linker-BIR2/caspase-3 inhibition assay and found to have IC50s in the following ranges: A: >10 μM; B: <10 μM; C: <1 μM, as shown in Table 7.

Assay [2] has as its target T2, XIAP Bir3-RING (GST-BIR 3RING) (Homo sapiens, UniProt P98170).
T2 construct: made in house; host or cells: E. coli DH5-alpha
The experiment in a line: Caspase de-repression assay using cellular extracts (apoptosome), XIAP Bir3-RING. Type of assay: biochemical. To be noted: 293 cell S100 extract. The procedure:
(§2) 100 ug of 293 cell S100 extract and 0.25 uM-2 uM of GST-Xiap fusion protein (GST-BIR 3RING, GST-linker BIR2 BIR3RING) were co-incubated with serial dilutions of compound (0.02 uM-40 uM). Extracts were activated by adding 1 mM dATP, 0.1 mM ALLN, 133 ug Cytochrome C (final concentrations), and incubating at 37° C. for 25 minutes. All reactions and dilutions used S100 buffer (50 mM Pipes pH 7.0, 50 mM KCl, 0.5 mM EGTA pH 8.0, 2 mM MgCl2 supplemented with 1/1000 dilutions of 2 mg/ml Cytochalisin B, 2, mg/ml Chymotstatin, Leupeptin, Pepstatin, Antipain, 0.1M PMSF, 1M DTT). Final reaction volume was 30 ul. Caspase-3 activity was measured by overlaying 30 ul of a 0.4 mM DEVD-AMC solution. AMC cleavage was measured in a TECAN spectrophotometer at 360 nm excitation and 444 nm emission, on a kinetic cycle of 1 hour with readings taken every 5 minutes. Caspase activity was calculated as Vo of AMC fluorescence/sec. Caspase de-repression by our compounds were compared to fully activated extract and activated extract repressed by the presence of XIAP fusion protein.
as §1

For assay [3], the target named is T3, GST-XIAP BIR3RING (Homo sapiens, UniProt P98170).
T3 construct: made in house; host or cells: E. coli DH5-alpha
T3 sequence (P98170 246-497): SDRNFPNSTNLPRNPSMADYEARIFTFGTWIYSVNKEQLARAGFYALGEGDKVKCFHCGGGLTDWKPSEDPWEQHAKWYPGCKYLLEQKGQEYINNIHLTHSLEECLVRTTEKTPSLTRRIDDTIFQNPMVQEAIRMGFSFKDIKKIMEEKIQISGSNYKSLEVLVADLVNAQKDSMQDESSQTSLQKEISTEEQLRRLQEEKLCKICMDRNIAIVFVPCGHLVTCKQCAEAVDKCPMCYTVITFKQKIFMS
Nature of the assay: Fluorescence polarization-based competition assay, XIAP Bir3-RING. The assay is classed as binding. As to the method:
GST-XIAP BIR3RING: XIAP coding sequence amino acids 246-497 cloned into PGEX2T1 via BamH1 and AVA I. The plasmid was transformed into E. coli DH5α for use in protein expression and purification.
(§3) A fluorescent peptide probe, Fmoc-Ala-Val-Pro-Phe-Tyr(t-Bu)-Leu-Pro-Gly(t-Bu)-Gly-OH was prepared using standard Fmoc chemistry on 2-chlorotrityl chloride resin (Int. J. Pept. Prot. Res. 38:555-561, 1991). Cleavage from the resin was performed using 20% acetic acid in dichloromethane (DCM), which left the side chain still blocked. The C-terminal protected carboxylic acid was coupled to 4′-(aminomethyl)fluorescein (Molecular Probes, A-1351; Eugene, Oreg.) using excess diisopropylcarbodiimide (DIC) in dimethylformamide (DMF) at room temperature and was purified by silica gel chromatography (10% methanol in DCM). The N-terminal Fmoc protecting group was removed using piperidine (20%) in DMF, and purified by silica gel chromatography (20% methanol in DCM, 0.5% HOAc). Finally, the t-butyl side chain protective groups were removed using 95% trifluoroacetic acid containing 2.5% water and 2.5% triisopropyl silane. […] Compound #174 was also used as a fluorescent probe in this assay.
(§4) For all assays, the fluorescence and fluorescence-polarization was evaluated using a Tecan Polarion instrument with the excitation filter set at 485 nm and the emission filter set at 535 nm. For each assay, the concentration of the target protein was first establish by titration of the selected protein in order to produce a linear dose-response signal when incubated alone in the presence of the fluorescent probe. Upon establishing these conditions, the compounds potency (IC50) and selectivity, was assessed in the presence of a fix defined-amount of target protein and fluorescent probe and a 10 point serial dilution of the selected compounds. For each IC50 curve, the assays were run as followed: 25 ul/well of diluted compound in 50 mM MES buffer pH 6.5 were added into a black 96 well plate then 25 ul/well of bovine serum albumin (BSA) at 0.5 mg/ml in 50 mM MES pH 6.5. Auto-fluorescence for each compound was first assessed by performing a reading of the compound/BSA solution alone. Then 25 ul of the fluorescein probe diluted into 50 mM MES containing 0.05 mg/ml BSA were added and a reading to detect quenching of fluorescein signal done. Finally 25 ul/well of the target or control protein (GST-BIRs) diluted at the appropriate concentration in 50 mM MES containing 0.05 mg/ml BSA were added and the fluorescence polarization evaluated.
(§5) For each assay the relative polarization-fluorescence units were plotted against the final concentrations of compound and the IC50 calculated using the Grad pad prism software and/or Cambridge soft. The ki value were derived from the calculated IC50 value as described above and according to the equation described in Nikolovska-Coleska, Z. (2004) Anal Biochem 332, 261-273.
(§6) Compounds exemplified in Table 6 were tested and found to have IC50s in the following ranges: A: >10 μM; B: <10 μM; C: <1 μM using the fluorescence polarization assay, as shown in Table 5. Each of the IC50s was calculated from Graph Pad.

For assay [4], the target named is T4, GST-HIAP2 (cIAP-1) BIR 3 (Homo sapiens, UniProt Q13490).
T4 construct: made in house; host or cells: E. coli DH5-alpha
T4 sequence (Q13490 251-363): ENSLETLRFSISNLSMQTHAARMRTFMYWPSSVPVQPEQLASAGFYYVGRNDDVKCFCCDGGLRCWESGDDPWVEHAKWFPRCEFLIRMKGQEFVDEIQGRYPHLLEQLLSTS
Nature of the assay: Fluorescence polarization-based competition assay, cIAP-1 Bir3. The assay is classed as binding. As to the method:
GST-HIAP2 (cIAP-1) BIR 3: HIAP2 coding sequence from amino acids 251-363 cloned into PGex4T3 via BamH1 and XhoI. The plasmid was transformed into E. coli DH5α for use in protein expression and purification.
as §3, §4, §5, §6
Background: Fluorescence polarisation rises when a labelled molecule tumbles more slowly, as on binding a larger partner.

Assay [5] addresses T5, GST-HIAP1(cIAP-2) BIR 3 (Homo sapiens, UniProt Q13489).
T5 construct: made in house; host or cells: E. coli DH5-alpha
The experiment in a line: Fluorescence polarization-based competition assay, cIAP-2 Bir3. The assay is classed as binding. As to the method: GST-HIAP1(cIAP-2) BIR 3: HIAP1 coding sequence from amino acids 236-349, cloned into PGex4T3 via BamH1 and XhoI. The plasmid was transformed into E. coli DH5α for use in protein expression and purification.
as §3, §4, §5, §6

The target in assay [6] is T6, XIAP Bir2-Bir3-RING (GST-linker BIR2 BIR3RING) (Homo sapiens, UniProt P98170).
T6 construct: made in house; host or cells: E. coli DH5-alpha
T6 sequence (P98170 93-497): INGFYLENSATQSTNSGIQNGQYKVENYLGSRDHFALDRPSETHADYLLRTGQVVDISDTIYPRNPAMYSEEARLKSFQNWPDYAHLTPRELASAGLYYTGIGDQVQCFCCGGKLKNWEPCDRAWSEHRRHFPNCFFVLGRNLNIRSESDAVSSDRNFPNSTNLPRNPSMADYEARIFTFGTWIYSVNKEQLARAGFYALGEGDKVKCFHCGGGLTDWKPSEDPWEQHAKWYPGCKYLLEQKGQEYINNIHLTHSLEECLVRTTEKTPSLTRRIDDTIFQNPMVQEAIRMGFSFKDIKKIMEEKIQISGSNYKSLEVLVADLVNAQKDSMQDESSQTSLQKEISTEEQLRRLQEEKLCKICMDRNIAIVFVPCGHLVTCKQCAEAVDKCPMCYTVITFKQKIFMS
Nature of the assay: Caspase de-repression assay using cellular extracts (apoptosome), XIAP Bir2-Bir3-RING. The assay is classed as biochemical. To be noted: 293 cell S100 extract. The procedure: as §2, §1

T1 sequence (P98170 93-497): as above
T2 sequence (P98170 246-497): as the sequence (P98170 246-497) above
T5 sequence (Q13489 236-349): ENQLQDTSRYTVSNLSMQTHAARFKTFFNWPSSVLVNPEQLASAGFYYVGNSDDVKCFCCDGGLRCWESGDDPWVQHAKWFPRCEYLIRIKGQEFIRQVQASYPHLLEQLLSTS

Regarding `CN[C@@H](C)C(=O)N[C@H](C(=O)N1CCC[C@H]1CN(CCc1ccccc1)C(=O)CCN)C(C)(C)C` [Compound 33], the IC50 in assay [1] was more than 10000 nM; in assay [2], less than 1000 nM; in assay [3], less than 1000 nM; in assay [4], less than 1000 nM; in assay [5], less than 1000 nM.

In the case of `CC(C)[C@H](NC(=O)[C@H](C)N)C(=O)N1CCC[C@H]1CN(C(=O)C(F)(F)F)[C@H]1CCCc2ccccc21` [Compound 4], the IC50 in assay [1] is more than 10000 nM; in assay [6], more than 10000 nM; in assay [2], more than 10000 nM; in assay [3], less than 10000 nM; in assay [4] it was less than 10000 nM; in assay [5], less than 10000 nM.

Consider `CC(C)[C@H](NC(=O)[C@H](C)N)C(=O)N1CCC[C@H]1CN(CCc1ccccc1)C(=O)OCc1ccccc1` [Compound 15], for which the IC50 in assay [1] is more than 10000 nM; in assay [6], more than 10000 nM; in assay [2], less than 10000 nM; in assay [3], less than 1000 nM; in assay [4] it was less than 1000 nM; in assay [5], less than 1000 nM.

Turning to `CC(C)[C@H](NC(=O)[C@H](C)N)C(=O)N1CCC[C@H]1CN(CCCCO)CCc1ccccc1` [Compound 29], the IC50 in assay [1] is more than 10000 nM; in assay [6], less than 10000 nM; in assay [2], less than 1000 nM; in assay [3], less than 10000 nM; in assay [4] it was less than 1000 nM; in assay [5] it was less than 1000 nM.

Take `CN[C@@H](C)C(=O)N[C@H](C(=O)N1CCC[C@H]1CN(CCc1ccccc1)C(=O)OCc1ccccc1)C(C)(C)C` [Compound 26]: the IC50 in assay [1] is more than 10000 nM; in assay [2], more than 10000 nM; in assay [3], less than 1000 nM; in assay [4], less than 1000 nM; in assay [5], less than 1000 nM.

For `CC[C@H](N)C(=O)N[C@H](C(=O)N1CCC[C@H]1CN(C(=O)C(F)(F)F)[C@H](C)c1ccccc1)C(C)C` [Compound 13], the IC50 is more than 10000 nM in assay [1]; more than 10000 nM in assay [6]; less than 10000 nM in assay [2]; less than 10000 nM in assay [3]; less than 10000 nM in assay [4]; more than 10000 nM in assay [5].

Take `CC(=O)N(CCc1ccccc1)C[C@@H]1CCCN1C(=O)[C@@H](NC(=O)[C@H](C)N)C(C)C` [Compound 19]: the IC50 in assay [1] is more than 10000 nM; in assay [6], more than 10000 nM; in assay [2] it was less than 1000 nM; in assay [3], less than 1000 nM; in assay [4], less than 1000 nM; in assay [5], less than 1000 nM.

For `CN[C@@H](C)C(=O)N[C@H](C(=O)N1CCC[C@H]1CN(CCc1ccccc1)C(=O)CN)C(C)(C)C` [Compound 32], the IC50 was more than 10000 nM in assay [1]; less than 1000 nM in assay [2]; less than 1000 nM in assay [3]; less than 1000 nM in assay [4]; less than 1000 nM in assay [5].

In the case of `CC(C)[C@H](NC(=O)[C@H](C)N)C(=O)N1CCC[C@H]1CN(CCc1ccccc1)C(=O)COc1ccccc1` [Compound 28], the IC50 was more than 10000 nM in assay [1]; less than 1000 nM in assay [2]; less than 1000 nM in assay [3]; less than 1000 nM in assay [4]; less than 1000 nM in assay [5].

Regarding `CC(C)[C@H](NC(=O)[C@H](C)N)C(=O)N1CCC[C@H]1CN(CCc1ccccc1)C(=O)c1ccccc1` [Compound 24], the IC50 in assay [1] was more than 10000 nM; in assay [2], less than 1000 nM; in assay [3] it was less than 1000 nM; in assay [4] it was less than 1000 nM; in assay [5], less than 1000 nM.

As to `CC(=O)N(CCCc1ccccc1)C[C@@H]1CCCN1C(=O)[C@@H](NC(=O)[C@H](C)N)C(C)C` [Compound 11], the IC50 in assay [2] was less than 1000 nM; in assay [3], less than 10000 nM; in assay [4], less than 10000 nM; in assay [5] it was less than 10000 nM.

`CNCC(=O)N(CCc1ccccc1)C[C@@H]1CCCN1C(=O)[C@@H](NC(=O)[C@H](C)NC)C(C)(C)C` [Compound 34]: the IC50 in assay [1] is more than 10000 nM; in assay [2] it was less than 1000 nM; in assay [3] it was less than 1000 nM; in assay [4] it was less than 1000 nM; in assay [5], less than 1000 nM.

Turning to `COCC(=O)N(CCc1ccccc1)C[C@@H]1CCCN1C(=O)[C@@H](NC(=O)[C@H](C)N)C(C)C` [Compound 25], the IC50 was more than 10000 nM in assay [1]; less than 1000 nM in assay [2]; less than 10000 nM in assay [3]; less than 1000 nM in assay [4]; less than 1000 nM in assay [5].

On to `CC[C@H](N)C(=O)N[C@H](C(=O)N1CCC[C@H]1CNCCc1ccccc1)C(C)C` [Compound 2], for which the IC50 in assay [6] was more than 10000 nM; in assay [2], more than 10000 nM; in assay [3], less than 10000 nM; in assay [4], less than 10000 nM; in assay [5] it was less than 10000 nM.

For the molecule `CN[C@@H](C)C(=O)N[C@H](C(=O)N1CCC[C@H]1CN(CCc1ccccc1)C(=O)CCC(=O)O)C(C)(C)C` [Compound 35], the concentration for half-maximal inhibition (IC50) in assay [1] is more than 10000 nM; in assay [2] it was less than 1000 nM; in assay [3] it was less than 1000 nM; in assay [4], less than 1000 nM; in assay [5] it was less than 1000 nM.

Take `CC[C@H](N)C(=O)N[C@H](C(=O)N1CCC[C@H]1CN(C(C)=O)[C@H](C)c1ccccc1)C(C)C` [Compound 7]: the results for the IC50 in assay [1], in assay [2] and in assay [3] were more than 10000 nM, less than 1000 nM and more than 10000 nM, respectively.
